# Reference: patent US10807952B2 (Achillion Pharmaceuticals, Inc., priority 2015, dated 2020)
# Where a name gives a salt, the structure may show the parent alone.
# Biological target: Human Factor D (Homo sapiens (Human), UniProt P00746)
# Assay: Human Factor D assay (Z-L-Lys-SBzl / DTNB, absorbance at 405 nm)
# Type: biochemical
# Conditions: Table 3; Human Factor D 80 nM, assay of Example 13
# Experimental: Human Factor D (purified from human serum, Complement Technology, Inc.) at 80 nM final concentration was incubated with test compound at various concentrations for 5 minutes at room temperature in 50 mM Tris, 1M NaCl, pH 7.5. A synthetic substrate Z-L-Lys-SBzl and DTNB (Ellman's reagent) were added to final concentrations of 100 μM each. […] IC50 values were calculated by nonlinear regression of complement Factor D reaction rates as a function of test compound concentration.
# Chain of Human Factor D (P00746 26-253): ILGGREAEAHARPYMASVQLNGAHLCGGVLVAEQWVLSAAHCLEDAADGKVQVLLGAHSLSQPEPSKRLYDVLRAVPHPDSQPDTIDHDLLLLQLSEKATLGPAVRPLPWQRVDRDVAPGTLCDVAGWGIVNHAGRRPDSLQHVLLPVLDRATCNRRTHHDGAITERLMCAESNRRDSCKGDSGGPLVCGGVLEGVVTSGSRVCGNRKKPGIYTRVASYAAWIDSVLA
row,SMILES,IC50 [µM]
1,"NC(=O)c1nn(CC(=O)N2C[C@H](F)C[C@H]2C(=O)Nc2cccc(-c3ccc4nonc4c3)c2F)c2ccccc12 [Compound 68, 1-(2-((2S,4R)-2-(3-(benzo[c][1,2,5]oxadiazol-5-yl)-2-fluorophenyl-carbamoyl)-4-fluoropyrrolidin-1-yl)-2-oxoethyl)-1H-indazole-3-carboxamide]",< 1
2,"CC(=O)c1cn(CC(=O)N2C[C@H](F)C[C@H]2C(=O)Nc2cccc(Br)n2)c2ccc(S(C)(=O)=NC(=O)OC(C)(C)C)cc12 (stereo partly drawn) [Compound 69, tert-butyl ((3-acetyl-1-(2-((2S,4R)-2-((6-bromopyridin-2-yl)carbamoyl)-4-fluoropyrrolidin-1-yl)-2-oxoethyl)-1H-indol-5-yl)(methyl)(oxo)-[…]^6-sulfanylidene)-[…]^4-azanecarboxylate e( )]",< 1
3,"CC(=O)c1cn(CC(=O)N2C[C@H](F)C[C@H]2C(=O)Nc2cccc(Br)n2)c2ccc(S(C)(=N)=O)cc12 (stereo partly drawn) [Compound 70, (2S,4R)-1-(2-(3-Acetyl-5-(S-methylsulfonimidoyl)-1H-indol-1-yl)acetyl)-N-(6-bromopyridin-2-yl)-4-fluoropyrrolidine-2-carboxamide hydrochloride]",< 1
4,"NC(=O)c1nn(CC(=O)N2C[C@H](F)C[C@H]2C(=O)Nc2cccc(-c3n[nH]c4ccsc34)c2F)c2ccccc12 [Compound 71, 1-(2-((2S,4R)-4-Fluoro-2-((2-fluoro-3-(1H-thieno[3,2-c]pyrazol-3-yl)phenyl)carbamoyl)pyrrolidin-1-yl)-2-oxoethyl)-1H-indazole-3-carboxamide]",< 1
5,"Cc1cc2c(s1)c(C(=N)N)nn2CC(=O)N1C[C@H](F)C[C@H]1C(=O)Nc1cccc(-c2ccccc2Cl)c1F [Compound 73, (2S,4R)-1-(2-(3-carbamimidoyl-5-methyl-1H-thieno[3,2-c]pyrazol-1-yl)acetyl)-N-(2′-chloro-2-fluorobiphenyl-3-yl)-4-fluoropyrrolidine-2-carboxamide]",< 1

# Same assay, conditions: Table 4; Human Factor D 80 nM, assay of Example 13
row,SMILES,IC50 [µM]
1,"COC(=O)c1cc(-c2cccc(NC(=O)[C@@H]3C[C@@H](F)CN3C(=O)Cn3nc(C(N)=O)c4ccccc43)c2F)cc2[nH]c(NC(=O)OC(C)(C)C)nc12 [Compound 75, methyl 2-((tert-butoxycarbonyl)amino)-6-(3-((2S,4R)-1-(2-(3-carbamoyl-1H-indazol-1-yl)acetyl)-4-fluoropyrrolidine-2-carboxamido)-2-fluorophenyl)-1H-benzo[d]imidazole-4-carboxylate]",> 10
2,"COC(=O)c1cc(-c2cccc(NC(=O)[C@@H]3C[C@@H](F)CN3C(=O)Cn3nc(C(N)=O)c4ccccc43)c2F)cc2[nH]c(N)nc12 [Compound 76, methyl 2-amino-6-(3-((2S,4R)-1-(2-(3-carbamoyl-1H-indazol-1-yl)acetyl)-4-fluoropyrrolidine-2-carboxamido)-2-fluorophenyl)-1H-benzo[d]imidazole-4-carboxylate]",< 1
3,"NC(=O)c1nn(CC(=O)N2C[C@H](F)C[C@H]2C(=O)Nc2cccc(-c3cc(C(=O)O)c4nc(N)[nH]c4c3)c2F)c2ccccc12 [Compound 77, 2-Amino-6-(3-((2S,4R)-1-(2-(3-carbamoyl-1H-indazol-1-yl)acetyl)-4-fluoropyrrolidine-2-carboxamido)-2-fluorophenyl)-1H-benzo[d]imidazole-4-carboxylic acid hydrochloride]",1 to 10
4,"NC(=O)c1cc(O)cc(CC(=O)N2C[C@H](F)C[C@H]2C(=O)Nc2cccc(-c3ccccc3Cl)c2F)c1 [Compound 78, (2S,4R)-1-(2-(3-carbamoyl-5-hydroxyphenyl)acetyl)-N-(2′-chloro-2-fluoro-[1,1′-biphenyl]-3-yl)-4-fluoropyrrolidine-2-carboxamide]",< 1
5,"CC(=O)c1nn(CC(=O)N2C[C@H](F)C[C@H]2C(=O)Nc2cccc(-c3cc(C(=O)O)c4nc[nH]c4c3)c2F)c2ccccc12 [Compound 80, 6-(3-((2S,4R)-1-(2-(3-acetyl-1H-indazol-1-yl)acetyl)-4-fluoropyrrolidine-2-carboxamido)-2-fluorophenyl)-1H-benzo[d]imidazole-4-carboxylic acid]",< 1
6,"COC(=O)Nc1nc2ccc(-c3cccc(NC(=O)[C@@H]4C[C@@H](F)CN4C(=O)Cn4nc(C(C)=O)c5ccccc54)c3F)c(Cl)c2[nH]1 [Compound 81, methyl (6-(3-((2S,4R)-1-(2-(3-acetyl-1H-indazol-1-yl)acetyl)-4-fluoropyrrolidine-2-carboxamido)-2-fluorophenyl)-7-chloro-1H-benzo[d]imidazol-2-yl)carbamate]",< 1
7,"CC(=O)c1nn(CC(=O)N2C[C@H](F)C[C@H]2C(=O)Nc2cccc(-c3ccc4c(c3)CCC(=O)N4)c2F)c2ccccc12 [Compound 82, (2S,4R)-1-(2-(3-acetyl-1H-indazol-1-yl)acetyl)-4-fluoro-N-(2-fluoro-3-(2-oxo-1,2,3,4-tetrahydroquinolin-6-yl)phenyl)pyrrolidine-2-carboxamide]",< 1
8,"CC(=O)c1nn(CC(=O)N2C[C@H](F)C[C@H]2C(=O)Nc2cccc(-c3ccc4nccnc4c3)c2F)c2ccccc12 [Compound 83, (2S,4R)-1-(2-(3-acetyl-1H-indazol-1-yl)acetyl)-4-fluoro-N-(2-fluoro-3-(quinoxalin-6-yl)phenyl)pyrrolidine-2-carboxamide]",< 1
9,"CC(=O)c1nn(CC(=O)N2C[C@H](F)C[C@H]2C(=O)Nc2cccc(-c3ccc4ncn(CCN)c4c3Cl)c2F)c2ccccc12 [Compound 84, (2S,4R)-1-(2-(3-acetyl-1H-indazol-1-yl)acetyl)-N-(3-(1-(2-aminoethyl)-7-chloro-1H-benzo[d]imidazol-6-yl)-2-fluorophenyl)-4-fluoropyrrolidine-2-carboxamide]",1 to 10
10,"CC(=O)c1nn(CC(=O)N2C[C@H](F)C[C@H]2C(=O)Nc2cccc(-c3ccc4[nH]ccc4c3)c2F)c2ccccc12 [Compound 85, (2S,4R)-1-(2-(3-acetyl-1H-indazol-1-yl)acetyl)-4-fluoro-N-(2-fluoro-3-(1H-indol-5-yl)phenyl)pyrrolidine-2-carboxamide]",< 1
11,"CC(=O)c1nn(CC(=O)N2[C@@H]3C[C@@H]3C[C@H]2C(=O)Nc2cccc(-c3cc(Cl)c4[nH]ccc4c3)c2F)c2ccccc12 [Compound 86, (1R,3S,5R)-2-(2-(3-acetyl-1H-indazol-1-yl)acetyl)-N-(3-(7-chloro-1H-indol-5-yl)-2-fluorophenyl)-2-azabicyclo[3.1.0]hexane-3-carboxamide]",> 10
12,"NC(=O)c1nn(CC(=O)N2C[C@H](F)C[C@H]2C(=O)Nc2cccc(-c3ccc4c(c3)NC(=O)C4)c2F)c2ccccc12 [Compound 88, 1-(2-((2S,4R)-4-fluoro-2-((2-fluoro-3-(2-oxoindolin-6-yl)phenyl)carbamoyl)pyrrolidin-1-yl)-2-oxoethyl)-1H-indazole-3-carboxamide]",< 1
13,"N#CNC(=O)c1ccc(Cl)c(-c2cccc(NC(=O)[C@@H]3C[C@@H](F)CN3C(=O)Cn3nc(C(N)=O)c4ccccc43)c2F)c1 [Compound 89, 1-(2-((2S,4R)-2-((2′-chloro-5′-(cyanocarbamoyl)-2-fluoro-[1,1′-biphenyl]-3-yl)carbamoyl)-4-fluoropyrrolidin-1-yl)-2-oxoethyl)-1H-indazole-3-carboxamide]",< 1
14,"NC(=O)c1nn(CC(=O)N2C[C@H](F)C[C@H]2C(=O)Nc2cccc(-c3cc(Cl)c4[nH]ccc4c3)c2F)c2ccccc12 [Compound 90, 1-(2-((2S,4R)-2-((3-(7-chloro-1H-indol-5-yl)-2-fluorophenyl)carbamoyl)-4-fluoropyrrolidin-1-yl)-2-oxoethyl)-1H-indazole-3-carboxamide]",< 1
15,"NC(=O)c1nn(CC(=O)N2C[C@H](F)C[C@H]2C(=O)Nc2cccc(-c3ccc4c(c3)C(=O)NC4)c2F)c2ccccc12 [Compound 91, 1-(2-((2S,4R)-4-fluoro-2-((2-fluoro-3-(3-oxoisoindolin-5-yl)phenyl)carbamoyl)pyrrolidin-1-yl)-2-oxoethyl)-1H-indazole-3-carboxamide]",< 1
16,"NC(=O)c1nn(CC(=O)N2C[C@H](F)C[C@H]2C(=O)Nc2cccc(-c3ccc4oc(=O)[nH]c4c3)c2F)c2ccccc12 [Compound 92, 1-(2-((2S,4R)-4-fluoro-2-((2-fluoro-3-(2-oxo-2,3-dihydrobenzo[d]oxazol-5-yl)phenyl)carbamoyl)pyrrolidin-1-yl)-2-oxoethyl)-1H-indazole-3-carboxamide]",< 1
17,"NC(=O)c1nn(CC(=O)N2C[C@H](F)C[C@H]2C(=O)Nc2cccc(-c3ccc4c(c3)C(=O)CCC4)c2F)c2ccccc12 [Compound 93, 1-(2-((2S,4R)-4-fluoro-2-((2-fluoro-3-(8-oxo-5,6,7,8-tetrahydronaphthalen-2-yl)phenyl)carbamoyl)pyrrolidin-1-yl)-2-oxoethyl)-1H-indazole-3-carboxamide]",< 1
18,"CC(=O)c1nn(CC(=O)N2C[C@H](F)C[C@H]2C(=O)Nc2cccc(-c3cc(C(=O)NC#N)ccc3Cl)c2F)c2ccccc12 [Compound 95, (2S,4R)-1-(2-(3-acetyl-1H-indazol-1-yl)acetyl)-N-(2′-chloro-5′-(cyanocarbamoyl)-2-fluoro-[1,1′-biphenyl]-3-yl)-4-fluoropyrrolidine-2-carboxamide]",< 1
19,"CC(=O)c1nn(CC(=O)N2C[C@H](F)C[C@H]2C(=O)Nc2cccc(-c3ccc4c(c3)NC(=O)NC4)c2F)c2ccccc12 [Compound 96, (2S,4R)-1-(2-(3-acetyl-1H-indazol-1-yl)acetyl)-4-fluoro-N-(2-fluoro-3-(2-oxo-1,2,3,4-tetrahydroquinazolin-7-yl)phenyl)pyrrolidine-2-carboxamide]",< 1
20,"CC(=O)c1nn(CC(=O)N2C[C@H](F)C[C@H]2C(=O)Nc2cccc(-c3nc(Cl)c4nc[nH]c4n3)c2F)c2ccccc12 [Compound 99, (2S,4R)-1-(2-(3-acetyl-1H-indazol-1-yl)acetyl)-N-(3-(6-chloro-9H-purin-2-yl)-2-fluorophenyl)-4-fluoropyrrolidine-2-carboxamide]",< 1
